From patent US7718669B2, “Triazolopyridine derivatives as inhibitors of lipases and phospholipases” (Sanofi-Aventis, priority 2005, dated 2010)

Target: T1, endothelial lipase (EL) (Homo sapiens, UniProt Q9Y5X9)
T1 construct: made in house; host or cells: recombinant CHO or HEK293 cell lines; concentrated conditioned medium
T1 sequence (Q9Y5X9 21-500): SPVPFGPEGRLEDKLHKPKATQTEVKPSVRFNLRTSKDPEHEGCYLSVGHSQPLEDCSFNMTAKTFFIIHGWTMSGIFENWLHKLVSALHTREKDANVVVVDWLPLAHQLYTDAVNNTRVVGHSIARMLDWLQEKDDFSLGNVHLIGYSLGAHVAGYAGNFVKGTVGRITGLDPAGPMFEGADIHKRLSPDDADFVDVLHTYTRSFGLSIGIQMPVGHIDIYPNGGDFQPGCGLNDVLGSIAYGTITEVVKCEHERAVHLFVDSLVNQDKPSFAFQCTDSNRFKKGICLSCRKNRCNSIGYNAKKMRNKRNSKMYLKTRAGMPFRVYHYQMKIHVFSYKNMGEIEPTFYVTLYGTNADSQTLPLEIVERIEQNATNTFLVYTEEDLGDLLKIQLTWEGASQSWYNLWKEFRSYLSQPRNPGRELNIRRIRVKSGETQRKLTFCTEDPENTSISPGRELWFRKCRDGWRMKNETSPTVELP
Test: EL inhibition assay
Type: biochemical
Conditions: EL from conditioned medium of recombinant cell lines (CHO, HEK293); Bodipy phospholipid substrate; 37° C. for 60 minutes
Source text: EL is released as secretory protein in high concentration into cell culture medium (conditioned medium) by recombinant cell lines (CHO, HEK293). This is employed as enzyme solution after concentration.
The phospholipase-specific substrate 1,2-bis(4,4-difluoro-5,7-dimethyl-4-bora-3a,4a-diaza-s-indacene-3-undecanoyl)-sn-glycero-3-phosphocholine, (manufacturer Molecular Probes) is used to characterize the enzymatic activity of endothelial lipase and the effect of inhibitors. Hydrolysis of the A1 ester linkage of this phospholipid by the enzyme liberates the fluorescent dye Bodipy which can be detected after separation by thin-layer chromatography on an HPTLC plate (silica gel 60, Merck) or directly in the reaction vessel by measuring the fluorescence. The substrate solution is prepared by taking up 100 μg of 1,2-bis(4,4-difluoro-5,7-dimethyl-4-bora-3a,4a-diaza-s-indacene-3-undecanoyl)-sn-glycero-3-phospho-choline (manufacturer Molecular Probes), 2.4 mg of tripalmitin (Sigma) and 7.9 mg of DOP-choline (1,2-dioleoyl-sn-glycero-3-phosphocholine) in 393 μl of chloroform and then transferring 157 μl into a fresh reaction vessel. After evaporation of the solvent, the lipid mixture is dissolved in 4 ml of 200 mM TRIS-HCl, 150 mM sodium chloride, pH=7.4, by sonication twice. The subsequent enzymic reaction takes place at 37° C. for 60 minutes. For this purpose, 45 μl of the substrate solution are incubated with 1 μl of inhibitor of appropriate concentration (dissolved in DMSO, pure DMSO solution is used as control) and 5 μl of enzyme solution (conditioned medium). Then 3 μl of the assay mixture are loaded onto an HPTLC plate (silica gel 60, Merck), and the liberated fluorescent dye is separated for detection with an eluent (diethyl ether:petroleum benzene:acetic acid [78:22:1]). After evaporation of the eluent, the plate is read in a fluorescence scanner. An increased release of the fluorescent dye in the uninhibited reaction is to be observed as a measure of the enzymic activity.
The enzymatic activity is reduced as a function of the inhibitor concentration used, and the inhibitor concentration at which a half-maximum enzymic activity is observed is called IC50.

IC50 [µM]	Compound
0.74	Cc1ccccc1CNC(=O)n1nnc2nc(Cl)ccc21 [Example 54]
0.58	Cc1ccccc1CNC(=O)n1nnc2ncc(Cl)cc21 [Example 55]
0.04	CCCCCCNC(=O)n1nnc2nc(Cl)ccc21 [Example 56]
1.24	Cc1ccccc1CNC(=O)n1nnc2cc(Cl)cnc21 [Example 68]

Target: T2, hormone sensitive lipase, HSL (Rattus norvegicus, UniProt P15304)
T2 construct: Isolated rat fat cells are obtained from epididymal adipose tissue; from tissue; host or cells: fat cells from epididymal adipose tissue of male Wistar rats
T2 sequence (P15304 301-1068 limits assumed): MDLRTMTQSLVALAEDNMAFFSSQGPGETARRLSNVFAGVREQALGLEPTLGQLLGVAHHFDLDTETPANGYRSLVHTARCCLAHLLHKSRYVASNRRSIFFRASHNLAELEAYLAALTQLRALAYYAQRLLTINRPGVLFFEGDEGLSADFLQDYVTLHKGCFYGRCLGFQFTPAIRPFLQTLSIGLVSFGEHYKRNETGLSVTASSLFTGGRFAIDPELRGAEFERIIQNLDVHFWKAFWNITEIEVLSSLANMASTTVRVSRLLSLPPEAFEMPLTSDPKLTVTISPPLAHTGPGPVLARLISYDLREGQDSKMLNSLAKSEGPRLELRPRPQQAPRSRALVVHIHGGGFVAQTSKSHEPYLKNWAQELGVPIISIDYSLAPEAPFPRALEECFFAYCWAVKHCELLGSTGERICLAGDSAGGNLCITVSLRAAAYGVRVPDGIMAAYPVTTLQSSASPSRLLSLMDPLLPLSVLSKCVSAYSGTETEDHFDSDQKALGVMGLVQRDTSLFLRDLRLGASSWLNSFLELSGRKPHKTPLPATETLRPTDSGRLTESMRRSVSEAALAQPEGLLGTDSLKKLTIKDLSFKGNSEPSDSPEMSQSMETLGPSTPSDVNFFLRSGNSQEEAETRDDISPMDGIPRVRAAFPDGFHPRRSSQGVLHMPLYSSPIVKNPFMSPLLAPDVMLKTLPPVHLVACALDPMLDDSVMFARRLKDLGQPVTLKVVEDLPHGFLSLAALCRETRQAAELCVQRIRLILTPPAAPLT
Test: HSL inhibition assay
Type: biochemical
Conditions: partially purified HSL from rat fat cells; [3H]trioleoylglycerol substrate; 37° C. for 30 min
Experimental: Preparation of the Partially Purified HSL:
Isolated rat fat cells are obtained from epididymal adipose tissue from untreated male rats (Wistar, 220-250 g) by collagenase treatment in accordance with published methods (e.g. S, Nilsson et al., Anal. Biochem. 158, 1986, 399-407; G. Fredrikson et al., J. Biol. Chem. 256, 1981, 6311-6320; H. Tornquist et al., J. Biol. Chem. 251, 1976, 813-819). The fat cells from 10 rats are washed three times by flotation with 50 ml of homogenization buffer ([…] Tris/HCl, pH 7.4, 0.25 M sucrose, 1 mM ETDA, 1 mM DTT, 10 μg/ml leupeptin, 10 μg/ml antipain, 20 μg/ml pepstatin) each time and finally taken up in 10 ml of homogenization buffer. The fat cells are homogenized in a Teflon-in-glass homogenizer (Braun-Melsungen) by 10 strokes at 1500 rpm and 15° C. The homogenate is centrifuged (Sorvall SM24 tubes, 5000 rpm, 10 min, 4° C.). The subnatant between the layer of fat at the top and the pellet is removed and the centrifugation is repeated. The subnatant resulting therefrom is centrifuged again (Sorvall SM24 tubes, 20 000 rpm, 45 min, 4° C.). […] After incubation at 4° C. for 60 min (shaking at intervals of 15 min), the mixture is centrifuged (Sorvall SM24 tubes, 3000 rpm, 10 min, 4° C.). The supernatant is adjusted to pH 5.2 by adding glacial acetic acid and is incubated at 4° C. for 30 min. The precipitates are collected by centrifugation (Sorvall SS34, 12 000 rpm, 10 min, 4° C.) and suspended in 2.5 ml of 20 mM Tris/HCl, pH 7.0, 1 mM EDTA, 65 mM NaCl, 13% sucrose, 1 mM DTT, 10 μg/ml leupeptin/pepstatin/antipain. The suspension is dialyzed against 25 mM Tris/HCl, pH 7.4, 50% glycerol, 1 mM DTT, 10 μg/ml leupeptin, pepstatin, antipain at 4° C. overnight and then loaded onto a hydroxiapatite column (0.1 g per 1 ml of suspension, equilibrated with 10 mM potassium phosphate, pH 7.0, 30% glycerol, 1 mM DTT). The column is washed with four volumes of equilibration buffer at a flow rate of 20 to 30 ml/h. The HSL is eluted with one volume of equilibration buffer containing 0.5 M potassium phosphate and then dialyzed (see above) and concentrated 5- to 10-fold by ultrafiltration (Amicon Diaflo PM 10 Filter) at 4° C. The partially purified HSL can be stored at −70° C. for 4 to 6 weeks.
To prepare the substrate, 25-50 μCi of [3H]trioleoylglycerol (in toluene), 6.8 μmol of unlabeled trioleoylglycerol and 0.6 mg of phospholipids (phosphatidylcholine/phosphatidylinositol 3:1 w/v) are mixed, dried with N2 and then taken up in 2 ml of 0.1 M KPi (pH 7.0) by ultrasound treatment (Branson 250, microtip, setting 1-2, 2×1 min with an interval of 1 min). After addition of 1 ml of KPi and renewed ultrasound treatment (4×30 sec on ice with intervals of 30 sec), 1 ml of 20% BSA (in KPi) is added (final concentration of trioleoylglycerol 1.7 mM). For the reaction, 100 μl of substrate solution are pipetted into 100 μl of HSL solution (HSL prepared as above, diluted in 20 mM KPi, pH 7.0, 1 mM EDTA, 1 mM DTT, 0.02% BSA, 20 μg/ml pepstatin, 10 μg/ml leupeptin) and incubated at 37° C. for 30 min. Addition of 3.25 ml of methanol/chloroform/heptane (10:9:7) and of 1.05 ml of 0.1 M K2CO3, 0.1 M boric acid (pH 10.5) is followed by thorough mixing and finally centrifugation (800×g, 20 min). After phase separation, one equivalent of the upper phase (1 ml) is removed and the radioactivity is determined by liquid scintillation measurement.
Substances are normally tested in four independent mixtures. The inhibition of the HSL enzymatic activity by a test substance is determined by comparing with an uninhibited control reaction. The IC50 is calculated from an inhibition plot with at least 10 concentrations of the test substance. The GRAPHIT, Elsevier-BIOSOFT software package is used to analyze the data.

Compound	IC50 [µM]
CC1CCN(C(=O)n2nnc3nc(Cl)ccc32)CC1 [Example 1, (5-Chloro-[1,2,3]triazolo[4,5-b]pyridin-1-yl)-(4-methylpiperidin-1-yl)-methanone]	0.5
Cc1cccc(C)c1N1CCN(C(=O)n2nnc3ncccc32)CC1 [Example 14]	0.607
COC(=O)c1ccc(C2CCN(C(=O)n3nnc4ncccc43)CC2)cc1 [Example 23]	0.45
CC1CC(C)CN(C(=O)n2nnc3ncccc32)C1 (centres unmarked) [Example 30]	0.585
O=C(C1CCC2(CC1)CCN(c1ccccc1)C2=O)n1nnc2ncccc21 (centres unmarked) [Example 35]	0.78
CCOc1ccc(N2CCN(C(=O)n3nnc4ncccc43)CC2)cc1 [Example 37]	0.576
O=C(N1CCC(c2ccccc2F)CC1)n1nnc2ncccc21 [Example 43]	0.763
O=C(N1CCC(CCc2ccccc2)CC1)n1nnc2ncccc21 [Example 48]	0.662
CC1(C)CCCN(C(=O)n2nnc3ncccc32)C1 [Example 50]	0.367
O=C(N1CCC(c2cccc(C(F)(F)F)c2)CC1)n1nnc2ncccc21 [Example 53]	0.826
CC1CCCN(C(=O)n2nnc3cccnc32)C1 (centres unmarked) [Example 63]	0.965

Further lines, results first:

IC50 [µM]	Compound
0.07	O=C(N1CCc2ccccc2C1)n1nnc2ncccc21 [Example 4]
0.3	CC1CCN(C(=O)n2nnc3ncc(Cl)cc32)CC1 [Example 5, (6-Chloro-[1,2,3]triazolo[4,5-b]pyridin-1-yl)-(4-methyl-piperidin-1-yl)-methanone]
0.175	CCCCCN(CCCCC)C(=O)n1nnc2ncccc21 [Example 24]
0.215	Cc1ccccc1N1CCN(C(=O)n2nnc3ncccc32)CC1 [Example 25]
0.198	O=C(N1CCN(c2ccc(-c3ccccc3)cc2)CC1)n1nnc2ncccc21 [Example 26]
0.136	CCCC1CCN(C(=O)n2nnc3ncccc32)CC1 [Example 31]
0.112	O=C(N1CCC(c2ccc3ccccc3c2)CC1)n1nnc2ncccc21 [Example 33]
0.062	O=C(N1CCN(c2ccc(OCc3ccccc3)cc2)CC1)n1nnc2ncccc21 [Example 41]
0.159	Nc1ccc(C2CCN(C(=O)n3nnc4ncccc43)CC2)cc1 [Example 42]
0.237	CCCCCCCCN1CCN(C(=O)n2nnc3ncccc32)CC1 [Example 51]
0.03	CC1CCN(C(=O)n2nnc3ccc(Cl)nc32)CC1 [Example 61, (5-chloro-[1,2,3]triazolo[4,5-b]pyridin-3-yl)-(4-methylpiperidin-1-yl)-methanone]
0.16	CC1CCN(C(=O)n2nnc3cccnc32)CC1 [Example 62]
0.03	O=C(N1CCc2ccccc2C1)n1nnc2cccnc21 [Example 64]
0.15	O=C(N1CCc2ccccc2C1)n1nnc2ccc(Cl)nc21 [Example 66, (5-chloro-[1,2,3]triazolo[4,5-b]pyridin-3-yl)-(3,4-dihydro-1H-isoquinolin-2-yl)-methanone]
